One experiment deals with T1, HBV polymerase (Hepatitis B virus genotype A2 subtype adw2, UniProt P03159).
T1 construct: made in house; host or cells: E. coli
Put plainly: In vitro reverse transcription activity of HBV polymerase (ELISA-type, DIG/biotin nucleotides). Format: biochemical. The following applies: for inhibition at 0.01 µg/mL / inhibition at 0.1 µg/mL / inhibition at 1 µg/mL: read-out: Inhibition activity on HBV-RT (%). How it is done: The following in vitro experiment was performed to determine the effect of the compounds of formula 1 on the activity of HBV polymerase during reverse transcription.
The present inventors submitted application for a patent concerning HBV polymerase genetically expressed in and separated from E. coli, the process of its preparation, and the method to measure the enzyme activities (KR 94-3918, KR 96-33998). In the present experiments HBV polymerase was used which had been expressed in E. coli as stated above.
The method used in the present invention to measure in vitro reverse transcribing activities of HBV polymerase is as follows. Basic principles are the same as for ELISA. Nucleotides with biotin or digoxigenin group attached are included as substrates and anti-DIG antibodies attached to peroxidase enzyme recognize the polymerized substrates.
To the wells coated with streptavidin, 20 μl of HBV polymerase, 20 μl of reaction mixture (10 μM each of DIG-UTP and Biotin-UTP, 46 mM Tris-HCl, 266 mM KCl, 27.5 mM MgCl2, 9.2 mM DTT substrate/primer hybrid), and 20 μl of test compound (added to 1, 0.1, and 0.01 μg/ml) were added and allowed to react a 22° C. for 15 hrs. During this reaction, HBV polymerase catalyzes DNA synthesis and digoxigenin and biotin attached to nucleotides form bonds with streptavidin coated on the bottom of wells. When the reaction was done, each well was washed with 250μl of cleaning buffer (pH 7.0) for 30 seconds, which was repeated five times to remove remaining impurities. 200 μl of anti-DIG-POD antibody was added to each well and allowed to react for 1 hr at 37° C., and the wells were washed with cleaning buffer to remove impurities. 200μl each of ABTS™, a substrate of peroxidase, was then added and allowed to react at room temperature for 30 min. Absorbance was measured at 405 nm using ELISA reader.
The percentage of reduction in HBV polymerase activities for reverse transcription was calculated using the group without test compound as a control and the results are shown in Table 3.
For orientation: An ELISA detects its analyte on a solid surface through an enzyme-linked reagent.

The test system of another experiment is HBV. Put plainly: Inhibition of HBV proliferation in HBV producing cell line HepG 2.2.15 (competitive PCR of culture supernatant). The class given is cell-based, Hepatitis B virus. The following applies: HepG 2.2.15, one week; for inhibition at 0.01 µg/mL / inhibition at 0.1 µg/mL / inhibition at 1 µg/mL: Hepatitis B virus, HepG2.2.15, 168 h, read-out: Inhibitory effect on the HBV proliferation, Inhibition activity on HBV-RT (%). How it is done: The following experiment was performed to determine inhibitory effects of compounds of formula on the proliferation of HBV producing cell line.
To test for antiviral effect, replication and proliferation of HBV were measured in HepG 2.2.15, a human liver cancer cell line.
The cell concentration was adjusted to 1×10^5 cells/ml and 1 ml was added to each well of a 24-well cell culture plate, which was then kept in a culture box for 3-4 days at 37° C. under 5% CO2 until cells grew sufficiently, changing culture medium everyday. When the cells matured sufficiently, the test compounds were added to the final concentrations of 0.01, 0.1, and 1 μg/ml. One week after the addition of test compounds, he culture solution was centrifuged at 5,000 rpm for 10 min. 25 μl of supernatant was transferred to a new tube and 5 μl of lysis solution [0.54N NaOH, 0.06% NP40] was added to each tube. After keeping the tube at 37° C. for 1 hr, 30 μl . of neutralizing solution [0.09NHCl, 0.1MTris-HCl, pH7.4] was added as a reaction solution for competitive polymerase chain reaction (PCR).
PCR was performed using genetic sequence of HBV core protein as a matrix. PCR reaction was carried out by adding 1 unit of Taq polymerase enzyme to 25 pmol of each primer, 250 μM dNTP, 5 μl of PCR reaction solution [0.54N NaOH, 0.06% NP40, 0.09N HCl, 0.1M Tris-HCl, pH 7.4].
DNA polymerized by PCR was electrophoresed on Agarose gel and quantitatively analyzed using an image analyzer (Gel Dcc 1000, Bio-Rad) in order to evaluate the effect of compounds of the present invention on the reduction of HBV proliferation.
3TC (lamivudine) was used as a positive control at the same concentrations as those of the test compounds. The percentage of reduction in HBV proliferation was calculated using the group without test compound as a control and the results are represented in Table 4.

The target in experiment [1] is T2, HIV reverse transcriptase (Human immunodeficiency virus type 1 group M subtype B, UniProt P04585).
T2 construct: activities of HIV reverse transcriptase; purchased Boehringer Mannheim
The experiment can be described thus: In vitro HIV reverse transcriptase activity (non-radioactive reverse transcriptase assay kit). The class given is biochemical. How it is done:
The following in vitro experiments were done to determine the effect of compounds of formula 1 on the reduction of HIV enzyme activities in reverse transcription.
Non-radioactive reverse transcriptase assay kit (Boehringer Mannheim) was used in the measurement of in vitro transcriptase activities. 20 μl (40 ng) of HIV transcriptase and 20 μl of reaction mixture containing matrix-primer hybrid poly (A) oligo (dT) 15, DIG(digoxigenin)-dUTP, biotin-dUTP, and TTP were added to wells coated with streptavidin. Test compounds were also added at the final concentrations of 0.1 and 1 μg/ml and allowed to react at 37° C. for 1 hr. At this time, DNA is formed from RNA by the action of HIV transcriptase, forming bonds with streptavidin coated on the bottom of wells because of digoxigenin and biotin moieties attached to nucleotides.
When the reaction was completed, each well was washed with 250 μl. of cleaning buffer (pH 7.0) for 30 sec. five times to remove remaining impurities. 200 μl of anti-DIG-POD […] was added to each well, allowed to react at 37° C. for 1 hr and washed as above to remove impurities. 200 μl of ABTS™, a substrate for peroxidase, was added to each well and allowed to react at room temperature for 30min. Absorbance at 405 nm was then read for each solution using ELISA reader and used for quantitative determination of inhibitory effect on the HIV transcriptase activities. The percentage of reduction in the activities of HIV reverse transcriptase was calculated using the group without test compound as control and the results are represented in Table 5.

This is an account of results in patent US6762189B1, “5-pyrimidinecarboxamide derivatives and the pharmaceutical compositions containing said derivatives” (Dong Wha Pharm. Ind. Co., Ltd., priority 1999, dated 2004).

Molecules are shown by their SMILES.

T1 sequence (P03159 whole entry): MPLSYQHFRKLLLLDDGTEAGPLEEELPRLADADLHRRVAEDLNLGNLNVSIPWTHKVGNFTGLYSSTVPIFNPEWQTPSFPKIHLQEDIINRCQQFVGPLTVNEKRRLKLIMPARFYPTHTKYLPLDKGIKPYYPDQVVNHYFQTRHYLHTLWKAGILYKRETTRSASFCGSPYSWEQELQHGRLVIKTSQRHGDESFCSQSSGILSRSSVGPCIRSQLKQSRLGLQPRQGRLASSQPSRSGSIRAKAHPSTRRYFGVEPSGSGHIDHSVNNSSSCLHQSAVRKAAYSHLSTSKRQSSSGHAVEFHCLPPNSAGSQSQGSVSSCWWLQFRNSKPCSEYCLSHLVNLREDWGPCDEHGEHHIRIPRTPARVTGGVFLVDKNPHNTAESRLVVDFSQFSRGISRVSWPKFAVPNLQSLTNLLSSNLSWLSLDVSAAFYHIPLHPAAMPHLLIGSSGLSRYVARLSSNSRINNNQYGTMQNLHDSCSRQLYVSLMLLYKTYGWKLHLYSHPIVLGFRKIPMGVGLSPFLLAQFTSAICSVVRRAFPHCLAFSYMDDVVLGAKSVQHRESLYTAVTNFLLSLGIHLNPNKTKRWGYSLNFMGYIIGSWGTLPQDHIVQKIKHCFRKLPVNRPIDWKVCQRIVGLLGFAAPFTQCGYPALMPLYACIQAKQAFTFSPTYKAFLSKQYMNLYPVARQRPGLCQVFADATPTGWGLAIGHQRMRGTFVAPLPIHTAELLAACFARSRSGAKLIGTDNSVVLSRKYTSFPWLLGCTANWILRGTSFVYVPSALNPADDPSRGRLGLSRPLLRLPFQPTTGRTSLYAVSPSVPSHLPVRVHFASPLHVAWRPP

Consider `CSc1ncc(C(=O)NCCO)c(Nc2ccc3[nH]ncc3c2)n1` [Example 7, N-(2-Hydroxyethyl)-4-(1H-5-indazolylamino)-2-methylthio-5-pyrimidinecarboxamide], for which the inhibition at 0.01 µg/mL at HBV polymerase (0.01 μg/ml test compound) was 48%; in the experiment on HBV (0.01 μg/ml) it was 21%. The inhibition at 0.1 µg/mL worked out at 76% on HBV polymerase (0.1 μg/ml test compound) and 61% in the experiment with HBV (0.1 μg/ml). The inhibition at 1 µg/mL on HBV polymerase (1 μg/ml test compound) amounted to 93%; in the experiment with HBV (1 μg/ml), 92%.
Take `CSc1ncc(C(=O)NC2CC2)c(Nc2ccc3cn[nH]c3c2)n1` [Example 6, N-cyclopropyl-4-(1H-6-Indazolylamino)-2-methylthio-5-pyrimidinecarboxamide]: the inhibition at 0.01 µg/mL on HBV polymerase (0.01 μg/ml test compound) was 24%. For the same compound, at HBV polymerase (0.1 μg/ml test compound), the inhibition at 0.1 µg/mL turned out to be 43%. The inhibition at 1 µg/mL on HBV polymerase (1 μg/ml test compound) was determined as 74%. Besides, the “Inhibitory effect on the activities of HIV reverse transcriptase, Inhibition activity on HBV-RT (%)” value (from here on “Inhibitory effect on the activities … (%)”) in experiment [1] (0.1 μg/ml test compound) came to 54%. Besides, the “Inhibition of HIV reverse transcriptase activity” value in experiment [1] (1 μg/ml test compound) was found to be 78%.
For `Nc1ccn([C@@H]2CS[C@H](CO)O2)c(=O)n1` [Example 3TC, lamivudine, reference compound], the inhibition at 0.01 µg/mL with HBV (0.01 μg/ml) stood at 48%. Also, the inhibition at 0.1 µg/mL in the experiment on HBV (0.1 μg/ml) came out at 80%. Moreover, in the experiment with HBV (1 μg/ml), the inhibition at 1 µg/mL came to 99%.
`CSc1ncc(C(=O)N(C)CCO)c(Nc2ccc3cn[nH]c3c2)n1` [Example 10, N-hydroxyethyl-N-methyl-4-(1H-6-indazolylamino)-2-methylthio-5-pyrimidinecarboxamide]: the inhibition at 0.01 µg/mL on HBV polymerase (0.01 μg/ml test compound) came out at 22%. For the same compound, at HBV polymerase (0.1 μg/ml test compound), the inhibition at 0.1 µg/mL turned out to be 48%. At HBV polymerase (1 μg/ml test compound), the inhibition at 1 µg/mL is 70%. In addition, the “Inhibitory effect on the activities … (%)” value in experiment [1] (0.1 μg/ml test compound) was determined as 47%. Also, in experiment [1] (1 μg/ml test compound), the “Inhibition of HIV reverse transcriptase activity” value worked out at 80%.
Consider `CSc1ncc(C(=O)NCCN2CCOCC2)c(Nc2ccc3cn[nH]c3c2)n1` [Example 20], for which the figures for the “Inhibition activity on HBV-RT (%)” value on HBV polymerase (0.01 μg/ml test compound), on HBV polymerase (0.1 μg/ml test compound) and at HBV polymerase (1 μg/ml test compound) were 12%, 40% and 67%, respectively. The results for the “Inhibitory effect on the activities … (%)” value in experiment [1] (0.1 μg/ml test compound) and in experiment [1] (1 μg/ml test compound) were 50% and 89%, respectively.
In the case of `CSc1ncc(C(N)=O)c(Nc2ccc3cn[nH]c3c2)n1` [Example 2, 4-(1H-6-Indazolylamino)-2-methylthio-5-pyrimidinecarboxamide], the inhibition at 0.01 µg/mL at HBV polymerase (0.01 μg/ml test compound) was determined as 36%; in the experiment on HBV (0.01 μg/ml), 20%. Besides, the inhibition at 0.1 µg/mL came out at 55% on HBV polymerase (0.1 μg/ml test compound) and 40% with HBV (0.1 μg/ml). Besides, the inhibition at 1 µg/mL on HBV polymerase (1 μg/ml test compound) was 85%; in the experiment with HBV (1 μg/ml), 70%.
Take `CCNC(=O)c1cnc(SC)nc1Nc1ccc2[nH]ncc2c1` [Example 5, N-ethyl-4-(1H-5-Indazolylamino)-2-methylthio-5-pyrimidinecarboxamide]: the inhibition at 0.01 µg/mL at HBV polymerase (0.01 μg/ml test compound) stood at 20%. In addition, the inhibition at 0.1 µg/mL at HBV polymerase (0.1 μg/ml test compound) came to 52%. For the same compound, the inhibition at 1 µg/mL at HBV polymerase (1 μg/ml test compound) was found to be 70%. Also, the “Inhibitory effect on the activities … (%)” value in experiment [1] (0.1 μg/ml test compound) turned out to be 57%. In addition, the “Inhibition of HIV reverse transcriptase activity” value in experiment [1] (1 μg/ml test compound) was found to be 80%.
For the compound `CSc1ncc(C(N)=O)c(Nc2ccc3[nH]ncc3c2)n1` [Example 1, 4-(1H-5-Indazolylamino)-2-methyl thio-5-pyrimidinecarboxamide], the “Inhibition activity on HBV-RT (%)” value at HBV polymerase (0.01 μg/ml test compound) was determined as 40%; at HBV polymerase (0.1 μg/ml test compound) it was 63%; at HBV polymerase (1 μg/ml test compound) it was 90%. The “Inhibitory effect on the HBV proliferation, Inhibition activity on HBV-RT (%)” value is 25% with HBV (0.01 μg/ml), 53% in the experiment on HBV (0.1 μg/ml) and 82% in the experiment on HBV (1 μg/ml). The “Inhibitory effect on the activities … (%)” value in experiment [1] (0.1 μg/ml test compound) is on record as 44%; in experiment [1] (1 μg/ml test compound), 65%.
`COCCNC(=O)c1cnc(SC)nc1Nc1ccc2[nH]ncc2c1` [Example 13, 4-(1H-5-indazolylamino)-N-(2-methoxyethyl)-2-methylthio-5-pyrimidinecarboxamide]: the inhibition at 0.01 µg/mL at HBV polymerase (0.01 μg/ml test compound) is 13%. Besides, the inhibition at 0.1 µg/mL on HBV polymerase (0.1 μg/ml test compound) was 40%. Also, the inhibition at 1 µg/mL on HBV polymerase (1 μg/ml test compound) was 58%.
Taken in the same sequence, the figures for `CC[C@H](CO)NC(=O)c1cnc(SC)nc1Nc1ccc2cn[nH]c2c1` [Example 12, N-[(1R)-1-(hydroxymethyl)propyl]-4-(1H-6-indazolylamino)-2-methylthio-5-pyrimidinecarboxamide] were 36%, 55% and 85%.
As for `CSc1ncc(C(=O)NN2CCOCC2)c(Nc2ccc3[nH]ncc3c2)n1` [Example 35, 4-(1H-5-indazolylamino)-2-methylthio-N-(4-morpholinyl)-5-pyrimidinecarboxamide], the inhibition at 0.01 µg/mL at HBV polymerase (0.01 μg/ml test compound) turned out to be 46%; in the experiment with HBV (0.01 μg/ml), 29%. Besides, the values for the inhibition at 0.1 µg/mL at HBV polymerase (0.1 μg/ml test compound) and with HBV (0.1 μg/ml) were 61% and 50%, respectively. The values for the inhibition at 1 µg/mL at HBV polymerase (1 μg/ml test compound) and in the experiment on HBV (1 μg/ml) were 90% and 86%, respectively.
For `CC[C@H](CO)NC(=O)c1cnc(SC)nc1Nc1ccc2[nH]ncc2c1` [Example 11], the figures for the “Inhibition activity on HBV-RT (%)” value on HBV polymerase (0.01 μg/ml test compound), at HBV polymerase (0.1 μg/ml test compound) and at HBV polymerase (1 μg/ml test compound) were 44%, 59% and 82%, respectively.
